Values quoted from earlier work in patent US8754055B2, “Methods, compositions, and kits for collecting and detecting oligonucleotides” (The Invention Science Fund I, LLC, priority 2008, dated 2014).
Where two headings read alike, the source gives them in different places.

Experiments:
[1] = in humans
[2] = 40, 8, and 1.6 μg injections once daily over 35 days
RNase A = biological target: T1, RNase A (Bos taurus, UniProt P61823); settings: RNAse A catalysis, read-out: inhibition constant (Ki)
T1 sequence (P61823 27-150): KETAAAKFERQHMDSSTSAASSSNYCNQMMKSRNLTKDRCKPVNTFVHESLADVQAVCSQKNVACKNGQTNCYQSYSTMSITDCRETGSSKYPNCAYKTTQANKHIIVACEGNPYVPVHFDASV

## Etanercept
[1]
  half-life: 70 h

## Nc1ccc(N=Nc2ccc(-c3ccc(O)cc3)cc2)c2ccc(S(=O)(=O)O)cc12 [8-amino-5-(4′-hydroxylbiphenyl-4-ylazo)naphthalene-2-sulfonate]
[2]
  overt toxicity: without overt toxicity

## oligo(vinylsulfonic acid)
RNase A; 0 mM sodium chloride (lower end of salt-dependent range)
  Ki: ~0.01 nM
RNase A; 100 mM sodium chloride (upper end of salt-dependent range)
  Ki: ~120 nM
